Where “and” joins values, the source holds several entries; their conditions need not be identical. Equal entries are not always repeated. Where two headings read alike, the source gives them in different places. Marks after values point to notes of the source that are not given here.
What was measured:
[1] = Photophysical properties (UV-Vis absorption, emission, energy levels); type: physicochemical; settings: for λabs, max (S0-S1): S0-S1 (1MLCT) absorption; for λabs, max (S0-S1) / λabs, max (S0-T1): dichloromethane with 2% acetone; for λabs, max (S0-T1): S0-T1 (3MLCT, S-T) absorption; for E (absorption coefficient, S0-T1 band): at 688 nm (S0-T1); for Energy level T1 state: calculated from maximum T1 (phosphorescence) emission wavelength
Excerpt: The absorption peak at about 492 nm is identified as the singlet metal-to-ligand charge transfer (^1MLCT) absorption, also termed as singlet-singlet (S-S) absorption. […] The two twistable bromophenyl groups of the bromophenyl terpyridine ligands extend the S-T absorption from 650 nm to 750 nm with increased absorption coefficient.
CombiFlash Rf chromatography instrument was purchased from Teledyne ISCO (Lincoln, USA) for chemical purification. Light sources used in this study were purchased from Yuanming Laser (Ningbo, China) and Mightex (CA, USA). The purity verification and photolysis study were conducted with a high-performance liquid chromatography (HPLC) system (Agilent technologies, 1260), attached with C-18 columns which were obtained from Agilent (Santa Clara, California, United States). Nuclear magnetic resonance (NMR) spectroscopy was collected by Bruker AVANCE III HD 500 spectrometer (MA, US). Fluorescence, phosphorescence and UV-vis spectra were collected by a SpectraMax M4 microplate reader (Molecular Devices, CA, US). The particle size and surface charge were recorded by a dynamic light scattering (DLS) device, Zetasizer Nano-ZS90 (Malvern instruments, UK). Transmission electron microscope (TEM) imaging was conducted on a Hitachi HT7700 TEM (Tokyo, Japan). ACEA NovoCyte Quanteon flow cytometer (ACEA Biosciences, CA, USA) was used for flow cytometry. In vivo and ex vivo imaging of the mice were conducted with an In Vivo Imaging System (PerkinElmer, USA). Devices for animal study like including balance and vernier caliper were kindly provided by The Centre for Comparative Medicine Research (CCMR), The University of Hong Kong.

[2] = Photolysis of BODIPY prodrugs in solution, analysed by HPLC; type: physicochemical
Method: BODIPY photocage was conjugated with the free drug molecules to form photoactivable prodrugs with photolabile linkages, including ester and carbamate. The light illumination was performed with a NIR lamp, of which the parameters were 100 mW/cm^2, 690 nm for 5 min, in a N2-saturated solution containing 0.1 equiv. of Os(bptpy)2^2+ and 1 equiv. of prodrugs. […] In addition, the photocage was conjugated with drug molecules with amine groups to produce prodrugs with photolabile carbamate bonds.
The photolysis efficiency of BODIPY prodrugs were compared in different conditions, including different excitation wavelengths (690 nm or 530 nm), different ratios of Os(bptpy)2^2+, and different oxygen contents. […] The solvent was 88% methanol mixed by 10% dichloromethane and 2% acetone. For the N2-saturated groups, after dissolving the molecules, the solution was degassed with a vacuum pump for 10 min followed by gentle N2 blowing. After light irradiation, the resulted mixtures were refilled to 100 μL with methanol to avoid the error caused by solvent evaporation. The resulted solution was loaded onto the sampler and analyzed by high-performance liquid chromatography. An elution method was used to separate free drug, BODIPY photocage and prodrug on the C18 column.

[3] = Photoreaction quantum yields and cross sections (HPLC, Reinecke's salt actinometry); type: physicochemical
Method: Quantum yields of the photoreactions (Φ) are defined as:
The number of reacted molecules (e.g., consumption of prodrugs or generation of free drugs) were determined by HPLC. The absorbed photon number was determined by Reinecke's salt actinometry at excitation wavelengths of 530 nm and 690 nm^35, 36. The power densities were 50 mW/cm^2 (530 nm) and 100 mW/cm^2 (690 nm).

[4] = Encapsulation efficiency and loading capacity of Os/BC NP (HPLC); type: physicochemical; settings: component of Os/BC NP
Method: Flash nanoprecipitation method was used to fabricate the photosensitizer/prodrug-loading nanoparticles. […] Different formulations (Os NPs, BC NPs and Os/BC NPs) were then prepared with optimized ratios of components. Briefly, 224 μL of the mixed stock solution was added into 1.8 mL N2-saturated water under vortexing. The resulted solutions were added to dialysis bags (MW: 3400 Da) and dialyzed against 4 L of water for 24 h. The water out of dialysis bag was renewed every 8 h. The resulted solution of NPs was collected and filtrated with 220 nm filter. Finally, the NPs solutions were concentrated by ultrafiltration (Mw=100 kDa, 2000×g, 10 min) and stored at 4° C. until use. The concentrations of each component were measured by using HPLC. Loading capacity and encapsulation efficiency were calculated as follow: […]

[5] = in toluene, calculated by TD-DFT, referred to previous studies; cited from earlier work
[6] = red-light irradiation (625 nm), platinum photosensitizer PtTPBP; ref 17 / US2021/0228719; cited from earlier work
HeLa tumor = test: In vivo light-triggered prodrug activation and tumor inhibition; parameters: species or system BALB/c nude mice; settings: 8 mg/kg intravenous Day 1 and 6, no light
Method: Encouraged by the anti-proliferation effect and tumor retention capability, Os/BC NPs were considered as an applicable agent for light-triggered drug release and photoactivated cancer chemotherapy. The HeLa tumor-bearing mice were randomly divided into […] (n=5) when the tumors reached at around […]. PBS, free Cb (8 mg/kg), Os NPs (at the equivalent concentration of Os in Os/BC NPs), BC NPs (at the equivalent concentration of Cb) and Os/BC NPs (at the equivalent concentration of Cb) were intravenously injected on Day 1 (FIG. 6C). At 24 h post injection, NIR-light irradiation (690 nm, 300 mW/cm^2, 10 min) was applied topically onto the tumor area (FIG. 6D). The formulation injection and light irradiation were repeated on Day 6 and 7, respectively. For evaluating therapeutic efficacy, tumor volume was recorded within the treatment period. […] However, no statistical difference was found between Group 3 and Groups 1, 2, 4 and 5. […] Hematoxylin and eosin (H&E) staining assay was conducted to investigate the pathology of the tumors and organs. […]
The anti-tumor efficacy of the formulations in presence or absence of light was investigated with HeLa tumor-bearing mice. […] Tumor sizes and body weights were measured during the period, and the tumor volume was calculated as V=½×width^2×length. […]

[7] = Stern-Volmer phosphorescence quenching assay (TTET from Os(bptpy)2^2+ to BODIPY-Cb); type: physicochemical
Method: The energy transfer quenching rate constants (kTTET) was measured by Stern-Volmer experiment. […] Oxygen was removed by nitrogen bubbling (50 mL/min) for 10 min.
Energy transfer quenching rate constants of this TTET process, quantified as kTTET, can be calculated based on the below equation (2)
(τ0: phosphorescence lifetime of Os(bptpy)2^2+ in N2-saturated solution without quencher.)
For Os(bptpy)2^2+, τ0=0.20 μs.

[8] = N2-saturated solution without quencher; cited from earlier work
[9] = In vivo biodistribution by IVIS fluorescence imaging; parameters: species or system BALB/c nude mice; settings: intravenous, DiR 100 μg/kg, HeLa tumor-bearing mice
Excerpt: The tumors and major organs were excised for ex vivo fluorescence imaging 24-h post injection. […] It should be noted that the prodrug can be selectively activated in tumors by NIR light while those nanoparticles in the normal tissues and organs will not be activated, which can alleviate the side effects of chemotherapy.
BALB/c nude mice (female, 4 weeks, 15-20 g) were obtained from the Experimental Animal Center of University with access to food and water ad libitum. The animal experiment and procedures were approved by the Committee on the Use of Live Animals in Teaching & Research (CULATR), The University of Hong Kong. (Protocol No. 4381-17).
HeLa tumor-bearing mice was obtained by subcutaneously injecting HeLa cells for tumor implantation. HeLa cancer cells were collected by cell culture and trypsin digestion. The cells were washed by PBS and resuspended in DMEM medium without serum, in which collagen and Matrigel were added. 2×10^6 cells were dispersed in 100 μL mixture, which was subcutaneously injected into the mice at underarm area. […]
The biodistribution of free drug or nanoparticles in the HeLa tumor-bearing mice was measured by an in vivo fluorescence imaging system. […] The in vivo fluorescence imaging was performed at 1, 2, 8 and 24 h post injection and anesthesia at each time point. […]

[10] = 10 μM, listed as Os(bptpy)2•2PF6

BODIPY-chlorambucil [BODIPY-Cb]
E (absorption coefficient at λabs, max) ([1]; at 543 nm): 89400 M⁻¹ cm⁻¹
λabs, max ([1]; dichloromethane solution with 2% acetone, 10 μM): 543 nm
λem, max ([1]; λex = 543 nm): 570^b nm
photocleavage in air-saturated solution ([2]; 530 nm green light, air-saturated): retarded
photolytic yield (yield of free drug) ([2]; 690 nm, 100 mW/cm^2, 5 min, 0.1 equiv. Os(bptpy)2^2+, N2-saturated solution): 84.17±4.21%
decomposition of prodrug and generation of free Cb in air-saturated solution ([2]; 690 nm, with Os(bptpy)2^2+, air-saturated): mostly retarded
Cross section Φpε(λex) ([3]; λex 530 nm, Air): 2292.95 ± 730.79 M⁻¹ cm⁻¹
Cross section Φrε(λex) ([3]; λex 530 nm, Air): 171.63 ± 24.81 M⁻¹ cm⁻¹
Quantum yield of prodrug photolysis Φp ([3]; λex 530 nm, Air): 3.42 ± 1.09%
Cross section Φpε(λex) ([3]; λex 530 nm, N2): 16017.11 ± 2044.88 M⁻¹ cm⁻¹
Cross section Φrε(λex) ([3]; λex 530 nm, N2): 6016.62 ± 1895.28 M⁻¹ cm⁻¹
Quantum yield of drug release Φr ([3]; λex 530 nm, N2): 6.73 ± 2.12%
Quantum yield of prodrug photolysis Φp ([3]; λex 530 nm, N2): 23.89 ± 3.05%
Cross section Φpε(λex) ([3]; λex 690 nm, 0.1 eq Os, Air): 1.87 ± 1.11 M⁻¹ cm⁻¹
Cross section Φrε(λex) ([3]; λex 690 nm, 0.1 eq Os, Air): 0.49 ± 0.11 M⁻¹ cm⁻¹
Quantum yield of drug release Φr ([3]; λex 690 nm, 0.1 eq Os, N2): 0.73 ± 0.04%
Quantum yield of prodrug photolysis Φp ([3]; λex 690 nm, 0.1 eq Os, N2): 0.84 ± 0.01%
Cross section Φpε(λex) ([3]; λex 690 nm, 0.1 eq Os, N2, ε of Os(bptpy)2·2PF6 at 688 nm): 222.80 ± 2.90 M⁻¹ cm⁻¹
Loading Capacity [4]: 0.27%
Energy level S1 state [5]: 2.18 eV and 2.18^f eV
Energy level T1 state [5]: 1.52 eV and 1.52^g eV
T1 lifetime [5]: 21.82^e μs
max. yield of free Cb, one-photon upconversion-like photolysis [6]: 41.74%

O=C(O)CCCc1ccc(N(CCCl)CCCl)cc1 [chlorambucil]
tumor volume (anti-tumor effect) (HeLa tumor): did not exhibit detectable anti-tumor effect

Os (II) bromophenyl terpyridine complex [Os(bptpy)2^2+]
λabs, max (S0-S1) ([1]; 10 μM): about 492 nm
λabs, max (S0-S1) [1, 10]: 491 (S0-S1) nm
λabs, max (S0-T1) ([1]; 10 μM): 688 nm
λabs, max (S0-T1) [1, 10]: 688 (S0-T1) nm
E (absorption coefficient, S0-S1 band) ([1]; at 491 nm (S0-S1)): 73500 M⁻¹ cm⁻¹
E (absorption coefficient, S0-T1 band) [1]: 26600 M⁻¹ cm⁻¹
E (absorption coefficient, S0-T1 band) ([1]; listed as Os(bptpy)2•2PF6): 26600 M⁻¹ cm⁻¹
Energy level S1 state ([1]; calculated by maximum S1 emission wavelength, E = 1240/λem, S1): 2.56^h eV
Energy level T1 state ([1]; E = 1240/λem): 1.69 eV
Energy level T1 state ([1]; E = 1240/λem, listed as Os(bptpy)2•2PF6): 1.69^i eV
λem, max ([1]; λex = 491 nm): 498^c nm
λem, max ([1]; λex = 688 nm): 734^d nm
Quenching constant kq ([7]; 10 μM Os(bptpy)2^2+, quencher BODIPY-Cb 0-7.5 μM, N2): (5.491±0.282)×10^4 M^−1
TTET rate constant (kTTET) ([7]; energy transfer from T1 of Os(bptpy)2^2+ to T1 of BODIPY-Cb): (2.72±0.14)×10^11 M^−1 s^−1
Encapsulation Efficiency [4]: 29.43%
Loading Capacity [4]: 0.22%
T1 lifetime [5]: 0.20^f μs
τ0 phosphorescence lifetime [8]: 0.20 μs

CCCCCCCCCCCCCCCCCCN1C(=CC=CC=CC=CC2=[N+](CCCCCCCCCCCCCCCCCC)c3ccccc3C2(C)C)C(C)(C)c2ccccc21.[I-] [DiR, 1,1′-dioctadecyl-3,3,3′,3′-tetramethylindotricarbocyanine iodide]
time within which the free dye was completely metabolized [9]: ≤ 8 h

— US20250000979A1, “TRIPLET-TRIPLET ENERGY TRANSFER WITH LIGHT EXCITATION AT LONG WAVELENGTHS AND METHODS THEREOF” (priority 2023, published 2025)
